Columns and labels:
[1] = system: rats with ligated left anterior descending coronary artery; experiment: Assay D: myocardial infarction rat model; type: in vivo; conditions: combination of beta-adrenergic antagonist and eplerenone versus either component alone; six weeks
Description: Male rats are anesthetized and the heart is exteriorized following a left sided thoracotomy. The left anterior descending coronary artery is ligated with a suture. The thorax is closed and the animal recovers. Sham animals have the suture e passed through without ligation. One week prior to the surgery, animals to undergo infarction are divided into separate groups and drug treatment is begun. […] After six weeks, systolic and diastolic blood pressure, left ventricular end diastolic pressure, left ventricular dP/dt, and heart rate are evaluated. The hearts are removed, weighed, measured and fixed in formalin. Collagen content of heart sections are evaluated using computerized image analysis of picrosirius stained sections.

[2] = system: patients with mild to moderate hypertension; experiment: Example 19 clinical study: eplerenone versus placebo co-administered with a calcium-channel blocker; type: in vivo, human
Description: This multicenter, randomized, double-blind, placebo-controlled, placebo run-in, parallel group trial involving a minimum of 120 randomized patients with hypertension (seated diastolic blood pressure [seDBP] ≧95 mmHg and <110 mmHg and seated systolic BP [seSBP] <180 mmHg while taking a CCB) will consist of a one- to two-week pretreatment screening period followed by a two- to four-week single-blind placebo run-in period and an 8-week double-blind treatment period. Eligible patients will be patients currently receiving a CCB as part of their antihypertensive medication. […] The dose will not be changed for patients with adequate BP control. […] If the dose has been increased at Week 2, the patient will be reassessed at Week 6. […] If BP is uncontrolled at Week 6 and the dose has been increased at Week 2 or Week 4, the patient must be withdrawn from the study. If symptomatic hypotension (i.e., lightheadedness, dizziness, or syncope associated with low BP) occurs at any time during the study, or if DBP is ≧110 mmHg or SBP is ≧180 mmHg at any time during the trial, the patient must be withdrawn. Patients will receive study medication for a total of 8 weeks.
The study will consist of a one- to two-week pretreatment screening period followed by a two- to four-week single-blind placebo run-in treatment period, prior to randomization to an eight-week double-blind treatment period.
Eligible patients will be either currently receiving a CCB alone, or receiving a CCB as part of their antihypertensive medication. […] The dose will not be changed for patients with adequate BP control. […] If the dose has been increased at Week 2, the patient will be reassessed at Week 6. The dose of study medication will not be changed for patients with adequate BP control. […] If BP is uncontrolled at Week 6 and the dose has been increased at Week 2 or Week 4, the patient must be withdrawn from the study. The dose of study medication will not be changed for patients with adequate BP control. If symptomatic hypotension (i.e., lightheadedness, dizziness, or syncope associated with low BP) occurs at any time during the study, or if DBP is ≧110 mmHg or SBP is ≧180 mmHg at any time during the study, the patient must be withdrawn. Patients will receive study medication for a total of eight weeks.
Patients will return to the clinic for evaluations at Weeks 0, 2, 4, 6, 8, and 9. Heart rate, BP, adverse events and concomitant medication will be assessed at each visit. Hematology and biochemistry evaluations and urinalysis for safety will be at Weeks 0, 8, and 9. Serum potassium levels will be determined at Weeks 0, 2, 4, 6, 8, and 9. Plasma renin, serum aldosterone, and plasma cortisol will be determined at Weeks 0 and 8. A 12-lead electrocardiogram and physical examination will be done at screening and at Week 9.
All randomized patients with at least one post-baseline assessment will be included in the efficacy analysis (intent-to-treat population). In each analysis, missing values will be imputed using the last observation carried forward (LOCF) method. The analysis of safety will focus on all randomized patients who took at least one dose of study medication (safety population).
BP evaluations will be analyzed at each visit using two-way analysis of covariance (ANCOVA) with the baseline measurement as the covariate and treatment and center as factors. The response variable will be the change from baseline. […]

progesterone receptor = target: T1, progesterone receptor (Homo sapiens, UniProt P06401); experiment: binding affinity for the progesterone receptor relative to spironolactone
T1 sequence (P06401 1-933): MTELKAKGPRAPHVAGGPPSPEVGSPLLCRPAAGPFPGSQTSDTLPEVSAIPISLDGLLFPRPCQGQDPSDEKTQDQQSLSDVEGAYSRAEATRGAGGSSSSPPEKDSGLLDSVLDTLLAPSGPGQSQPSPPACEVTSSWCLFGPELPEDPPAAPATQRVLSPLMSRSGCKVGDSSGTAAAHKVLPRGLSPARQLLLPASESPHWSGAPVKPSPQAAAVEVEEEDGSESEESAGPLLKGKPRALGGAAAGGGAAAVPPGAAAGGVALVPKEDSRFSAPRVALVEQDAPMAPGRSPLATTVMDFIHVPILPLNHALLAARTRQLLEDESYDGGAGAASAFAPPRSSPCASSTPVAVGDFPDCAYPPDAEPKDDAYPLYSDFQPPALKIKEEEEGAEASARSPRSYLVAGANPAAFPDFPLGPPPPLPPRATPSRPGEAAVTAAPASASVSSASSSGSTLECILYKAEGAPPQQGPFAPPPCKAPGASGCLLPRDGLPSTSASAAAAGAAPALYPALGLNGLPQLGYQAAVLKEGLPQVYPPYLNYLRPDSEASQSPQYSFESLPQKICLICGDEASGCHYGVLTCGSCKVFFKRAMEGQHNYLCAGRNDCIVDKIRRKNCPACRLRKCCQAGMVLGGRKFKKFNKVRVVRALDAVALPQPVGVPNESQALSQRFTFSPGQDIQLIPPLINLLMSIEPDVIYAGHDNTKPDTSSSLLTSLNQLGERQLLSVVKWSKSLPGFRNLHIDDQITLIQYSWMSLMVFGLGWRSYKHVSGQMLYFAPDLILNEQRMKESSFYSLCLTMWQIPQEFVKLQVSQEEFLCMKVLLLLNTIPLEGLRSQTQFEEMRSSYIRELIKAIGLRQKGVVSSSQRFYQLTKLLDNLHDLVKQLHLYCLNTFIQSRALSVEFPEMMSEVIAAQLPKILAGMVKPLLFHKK

[3] = system: rats made hypertensive by renal artery clip; experiment: Assay C: hypertensive rat model; type: in vivo; conditions: combination of beta-adrenergic antagonist and eplerenone versus either component alone; 12 and 24 weeks
Description: Male rats are made hypertensive by placing a silver clip with an aperture of 240 microns on the left renal artery, leaving the contralateral kidney untouched. Sham controls undergo the same procedure but without attachment of the clip. One week prior to the surgery, animals to be made hypertensive are divided into separate groups and drug treatment is begun. […] After 12 and 24 weeks, systolic and diastolic blood pressure, left ventricular end diastolic pressure, left ventricular dP/dt, and heart rate are evaluated. The hearts are removed, weighed, measured and fixed in formalin. Collagen content of heart sections are evaluated using computeried image analysis of picrosirius stained sections.

[4] = system: myocardial fibrosis in animal models; conditions: cited from earlier work
[5] = CCB and eplerenone compared to CCB and placebo
[6] = eight weeks, eplerenone and CCB versus CCB and placebo

SMILES | cardiac performance [1] | active renin levels [2, 5] | aldosterone levels [2, 5] | change in mean diastolic blood pressure [2, 6] | systolic blood pressure [2, 6] | serious adverse events ([2]; eplerenone added to CCB therapy) | binding affinity for the progesterone receptor, % that of spironolactone (progesterone receptor) | cardiac performance [3] | myocardial fibrosis [4]
COC(=O)[C@@H]1CC2=CC(=O)CC[C@]2(C)[C@@]23O[C@@H]2C[C@@]2(C)[C@@H](CC[C@@]24CCC(=O)O4)[C@H]13 [eplerenone, Pregn-4-ene-7,21-dicarboxylic acid, 9,11-epoxy-17-hy-droxy-3-oxo-, γ-lactone, methyl ester, (7α, 11α, 17β)-] | improvements in cardiac performance | greater increase | greater increase | greater for the dual therapy group, compared to monotherapy, but this difference did not reach statistical significance | significant reduction | no serious adverse events reported | less than 1% | improvments in cardiac performance | 
CC(=O)S[C@@H]1CC2=CC(=O)CC[C@]2(C)[C@H]2CC[C@@]3(C)[C@@H](CC[C@@]34CCC(=O)O4)[C@H]12 [spironolactone] |  |  |  |  |  |  |  |  | prevents myocardial fibrosis

Source: patent US20020123485A1, “Epoxy steroidal aldosterone antagonist and beta-adrenergic antagonist combination therapy for treatment of congestive heart failure” (priority 2000, published 2002)
